This is an account of results in article PMC9516332 (Frontiers in Oncology, 2022).

Holding throughout (experiment): Kinase panel profiling at 1 µmol/L (MSA or IMAP), percentage inhibition
Format in all cases: biochemical

The target in assay [1] is T1, panel of 255 wild-type kinases (Homo sapiens, UniProt O94806).
T1 sequence (O94806 1-890): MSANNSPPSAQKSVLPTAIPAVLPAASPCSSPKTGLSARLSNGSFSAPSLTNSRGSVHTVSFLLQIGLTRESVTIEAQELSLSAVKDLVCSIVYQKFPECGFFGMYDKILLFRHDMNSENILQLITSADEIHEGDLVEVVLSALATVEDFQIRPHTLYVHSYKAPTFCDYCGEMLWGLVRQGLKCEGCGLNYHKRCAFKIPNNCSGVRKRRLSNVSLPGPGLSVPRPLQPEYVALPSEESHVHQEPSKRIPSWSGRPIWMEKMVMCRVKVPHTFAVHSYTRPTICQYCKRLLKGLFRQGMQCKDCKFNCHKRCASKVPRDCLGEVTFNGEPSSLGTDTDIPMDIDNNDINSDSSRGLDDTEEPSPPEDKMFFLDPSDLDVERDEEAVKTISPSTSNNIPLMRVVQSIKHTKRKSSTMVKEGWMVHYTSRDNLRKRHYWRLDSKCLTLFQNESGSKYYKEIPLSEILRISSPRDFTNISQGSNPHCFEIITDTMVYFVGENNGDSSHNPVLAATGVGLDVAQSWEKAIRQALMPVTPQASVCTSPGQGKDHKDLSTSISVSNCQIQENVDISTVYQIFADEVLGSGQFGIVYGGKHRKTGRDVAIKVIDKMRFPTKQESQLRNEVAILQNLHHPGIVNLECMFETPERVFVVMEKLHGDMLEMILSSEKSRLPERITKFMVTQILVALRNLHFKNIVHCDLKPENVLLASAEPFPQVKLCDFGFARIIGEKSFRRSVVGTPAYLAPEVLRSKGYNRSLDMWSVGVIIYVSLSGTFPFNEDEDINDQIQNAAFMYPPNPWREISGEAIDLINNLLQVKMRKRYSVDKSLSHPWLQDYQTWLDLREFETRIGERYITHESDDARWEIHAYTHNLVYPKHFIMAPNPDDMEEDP
Particulars: kinase PKD3; 1 µmol/L single concentration; read-out: %-inhibition at 1 µmol/L, PKD3.

In assay [2] the target is panel of 255 wild-type kinases (Homo sapiens, UniProt P17948). Particulars: kinase FLT1; 1 µmol/L single concentration; read-out: %-inhibition at 1 µmol/L, FLT1.
Assay [3] addresses panel of 255 wild-type kinases (Homo sapiens, UniProt P19525). Particulars: kinase PKR; 1 µmol/L single concentration; read-out: %-inhibition at 1 µmol/L, PKR.
For assay [4], the target named is panel of 255 wild-type kinases (Homo sapiens, UniProt P27448). The conditions noted are these: MARK3; 1 µmol/L single concentration; read-out: %-inhibition, MARK3.
Assay [5] has as its target panel of 255 wild-type kinases (Homo sapiens, UniProt P29317). Particulars: kinase EPHA2; 1 µmol/L single concentration; read-out: %-inhibition at 1 µmol/L, EPHA2.
Assay [6] concerns the target panel of 255 wild-type kinases (Homo sapiens, UniProt P42684). Particulars: ARG kinase assay; 1 µmol/L single concentration; read-out: %-inhibition ARG.
Assay [7] deals with panel of 255 wild-type kinases (Homo sapiens, UniProt P54764). The conditions noted are these: kinase EPHA4; 1 µmol/L single concentration; read-out: %-inhibition at 1 µmol/L, EPHA4.
For assay [8], the target named is panel of 255 wild-type kinases (Homo sapiens, UniProt Q16654). The conditions noted are these: kinase PDHK4; 1 µmol/L single concentration; read-out: %-inhibition at 1 µmol/L, PDHK4.
Assay [9] has as its target panel of 255 wild-type kinases (Homo sapiens, UniProt Q96RG2). Particulars: PASK; 1 µmol/L single concentration; read-out: %-inhibition, PASK.
Assay [10] concerns the target panel of 255 wild-type kinases (Homo sapiens, UniProt Q96SB4). Particulars: kinase SRPK1; 1 µmol/L single concentration; read-out: %-inhibition at 1 µmol/L, SRPK1.
Assay [11] deals with panel of 255 wild-type kinases (Homo sapiens, UniProt Q9HCP0). Particulars: kinase CK1γ1; 1 µmol/L single concentration; read-out: %-inhibition at 1 µmol/L, CK1γ1.
The target in assay [12] is T2, panel of 255 wild-type kinases (Homo sapiens, UniProt Q9NRA0).
T2 sequence (Q9NRA0 1-654): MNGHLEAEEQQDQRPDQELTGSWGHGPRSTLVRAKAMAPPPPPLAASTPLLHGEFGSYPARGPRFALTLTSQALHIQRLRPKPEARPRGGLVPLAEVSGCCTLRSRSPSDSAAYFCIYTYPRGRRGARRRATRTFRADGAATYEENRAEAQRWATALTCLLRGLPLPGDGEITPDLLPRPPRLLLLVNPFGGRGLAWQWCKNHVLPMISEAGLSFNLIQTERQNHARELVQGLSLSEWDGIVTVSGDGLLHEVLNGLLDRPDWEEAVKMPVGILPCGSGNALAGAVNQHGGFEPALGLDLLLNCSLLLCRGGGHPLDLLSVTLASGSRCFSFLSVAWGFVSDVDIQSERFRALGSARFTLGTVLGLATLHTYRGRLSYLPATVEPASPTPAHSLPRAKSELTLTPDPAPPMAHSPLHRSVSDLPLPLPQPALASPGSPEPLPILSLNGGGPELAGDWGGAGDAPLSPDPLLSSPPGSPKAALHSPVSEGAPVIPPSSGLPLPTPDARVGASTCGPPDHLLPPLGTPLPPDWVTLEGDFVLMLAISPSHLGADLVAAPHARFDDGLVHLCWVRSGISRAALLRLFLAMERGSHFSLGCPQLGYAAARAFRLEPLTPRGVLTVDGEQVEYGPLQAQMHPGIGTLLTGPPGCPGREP
Particulars: kinase SPHK2; 1 µmol/L single concentration; read-out: %-inhibition at 1 µmol/L, SPHK2.

For the compound `Cc1cc(Nc2ncnc3ccc(NC4=NC(C)(C)CO4)cc23)ccc1Oc1ccn2ncnc2c1` [tucatinib], the inhibition at 1 µM is 39% in assay [1]; 3.22% in assay [2]; 3.37% in assay [3]; -10% in [4]; 2% in assay [5]; 3.73% in assay [6]. Moreover, the inhibition at 1 µM in [7] was -2.34%; in [8], 7.57%; in [9], 0.181%; in [10] it was -3%; in [11], 11%; in assay [12], 0.368%.
In the case of `C=CC(=O)N1CCC([C@@H]2CCNc3c(C(N)=O)c(-c4ccc(Oc5ccccc5)cc4)nn32)CC1` [zanubrutinib], the inhibition at 1 µM in assay [1] is 13%; in assay [2] it was 2.22%; in assay [3] it was -1.41%; in assay [4], -1.28%; in assay [5] it was -1.86%; in assay [6], -3.68%. Also, the inhibition at 1 µM in assay [7] was -0.204%; in assay [8], 0.136%; in assay [9], -2.55%; in assay [10], -6%; in assay [11], -3.73%; in assay [12], -6.64%.
